PubChem BioAssay (NCI)
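Five concentrations, 48 hours, 96-well plates. GI50 = concentration required for 50% inhibition of growth. At the TGI there is no net growth.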

Experiments:
Assay in all cases: NCI tumour cell line growth inhibition, 48 h
LXFL 529 NSCLC = system: LXFL 529 NSCLC
RXF-631 renal = system: RXF-631 renal
DMS 114 small cell lung = system: DMS 114 small cell lung
M19-MEL melanoma = system: M19-MEL melanoma
SNB-78 CNS = system: SNB-78 CNS
HOP-18 NSCLC = system: HOP-18 NSCLC
XF 498 CNS = system: XF 498 CNS
NCI/ADR-RES ovarian = system: NCI/ADR-RES ovarian
MDA-N = system: MDA-N

CC(=O)Nc1ccc(/C=C/C(=O)c2sc(-n3nc(-c4ccccc4)cc3-c3ccccc3)nc2C)cc1
GI50 (LXFL 529 NSCLC): > 100 µM
TGI (LXFL 529 NSCLC): > 100 µM
GI50 (RXF-631 renal): > 100 µM
TGI (RXF-631 renal): > 100 µM
TGI (DMS 114 small cell lung): > 100 µM
GI50 (M19-MEL melanoma): > 100 µM
TGI (M19-MEL melanoma): > 100 µM

COc1cc(Br)c(C2OCCCO2)cc1OCc1ccccc1
TGI (LXFL 529 NSCLC): > 100 µM
TGI (RXF-631 renal): > 100 µM
TGI (SNB-78 CNS): > 100 µM
TGI (DMS 114 small cell lung): > 100 µM
TGI (M19-MEL melanoma): > 100 µM

CC(=O)NNc1nc(C)c(C(=O)NNC(=O)C(=O)Nc2ccc(C)cc2[N+](=O)[O-])s1
TGI (LXFL 529 NSCLC): > 100 µM
TGI (RXF-631 renal): > 100 µM
TGI (SNB-78 CNS): > 100 µM
TGI (HOP-18 NSCLC): > 100 µM
TGI (DMS 114 small cell lung): > 100 µM
TGI (M19-MEL melanoma): > 100 µM

COC(=O)N1C=Cc2c(c(C)c3c([nH]c4ccccc43)c2C)C1C (stereo not drawn)
TGI (LXFL 529 NSCLC): 43.7 µM
TGI (RXF-631 renal): 37.5 µM
TGI (XF 498 CNS): 34.2 µM
TGI (DMS 114 small cell lung): 40 µM
TGI (M19-MEL melanoma): 37.6 µM

O=C(c1ccccc1)N1CCc2c([nH]c3ccccc23)C1
TGI (LXFL 529 NSCLC): > 100 µM
TGI (RXF-631 renal): > 100 µM
TGI (XF 498 CNS): 55 µM
TGI (HOP-18 NSCLC): > 100 µM
TGI (DMS 114 small cell lung): 65.1 µM
TGI (M19-MEL melanoma): > 100 µM

BrC(/C=N/Nc1nnc(-c2ccccc2)c(-c2ccccc2)n1)C(Br)c1ccccc1 (stereo not drawn)
TGI (RXF-631 renal): > 100 µM
TGI (XF 498 CNS): 82.7 µM
TGI (SNB-78 CNS): 78.1 µM
TGI (DMS 114 small cell lung): > 100 µM
TGI (M19-MEL melanoma): > 100 µM

CSc1cnc2ccccc2c1Sc1cn(C)c2ccccc2c1=O
TGI (RXF-631 renal): 42.5 µM
TGI (XF 498 CNS): 70.8 µM
TGI (HOP-18 NSCLC): > 100 µM
TGI (DMS 114 small cell lung): 67.7 µM
TGI (M19-MEL melanoma): > 100 µM

CCc1cccc(CC)c1NC1=CC(=O)C(=O)c2ccccc21
TGI (LXFL 529 NSCLC): 48.8 µM
TGI (RXF-631 renal): > 100 µM
TGI (SNB-78 CNS): 80.6 µM
TGI (HOP-18 NSCLC): 62.9 µM
TGI (DMS 114 small cell lung): 27.6 µM
TGI (M19-MEL melanoma): 17.2 µM

CC[C@H]1CNC(=O)CC1CC(=O)OC (stereo partly drawn)
TGI (RXF-631 renal): > 100 µM
TGI (SNB-78 CNS): > 100 µM
TGI (DMS 114 small cell lung): > 100 µM

N#CC1(C2CC(=O)N(c3ccccc3)C2=O)CCCCC1=O (stereo not drawn)
TGI (LXFL 529 NSCLC): > 100 µM
TGI (RXF-631 renal): > 100 µM
TGI (XF 498 CNS): > 100 µM
TGI (SNB-78 CNS): > 100 µM
TGI (HOP-18 NSCLC): > 100 µM
TGI (DMS 114 small cell lung): > 100 µM
TGI (M19-MEL melanoma): > 100 µM

C/C(=N\NC(N)=S)c1ccc(Oc2ccccc2)cc1
TGI (LXFL 529 NSCLC): 17.5 µM
TGI (RXF-631 renal): 43.7 µM
TGI (SNB-78 CNS): 47.7 µM
TGI (HOP-18 NSCLC): 80 µM
TGI (DMS 114 small cell lung): 17.9 µM
TGI (M19-MEL melanoma): 47.2 µM

C=CC(C)(C)[C@@]12CC3C(=O)N[C@@H](Cc4ccccc4)C(=O)N3[C@@H]1N(C(C)=O)c1ccccc12 (stereo partly drawn)
TGI (LXFL 529 NSCLC): > 100 µM
TGI (RXF-631 renal): > 100 µM
TGI (XF 498 CNS): > 100 µM
TGI (SNB-78 CNS): > 100 µM
TGI (HOP-18 NSCLC): > 100 µM
TGI (DMS 114 small cell lung): > 100 µM
TGI (M19-MEL melanoma): > 100 µM

O=C(CC1(O)C(=O)Nc2ccc(Br)cc21)c1cccc([N+](=O)[O-])c1 (stereo not drawn)
TGI (LXFL 529 NSCLC): > 100 µM
TGI (RXF-631 renal): > 100 µM
TGI (SNB-78 CNS): > 100 µM
TGI (HOP-18 NSCLC): > 100 µM

COC1=C(OC)C(=O)c2cc(C)c(=O)c(C)cc2C1=O
TGI (NCI/ADR-RES ovarian): 39.4 µM
TGI (MDA-N): 6.84 µM
TGI (LXFL 529 NSCLC): 13.9 µM
TGI (RXF-631 renal): > 100 µM
TGI (SNB-78 CNS): 45.5 µM
TGI (HOP-18 NSCLC): 29.9 µM
TGI (DMS 114 small cell lung): 12.7 µM
TGI (M19-MEL melanoma): 11.5 µM

N#Cc1cccc(C2SCc3nc4ccccc4n32)c1 (stereo not drawn)
TGI (LXFL 529 NSCLC): > 100 µM
TGI (RXF-631 renal): > 100 µM
TGI (XF 498 CNS): > 100 µM
TGI (SNB-78 CNS): > 100 µM
TGI (DMS 114 small cell lung): > 100 µM

CCn1c(O)c(C(=O)Nc2cccs2)c(=O)n(CC)c1=S
TGI (LXFL 529 NSCLC): 55.7 µM
TGI (RXF-631 renal): 41.8 µM
TGI (SNB-78 CNS): 50.4 µM
TGI (DMS 114 small cell lung): 31.7 µM
TGI (M19-MEL melanoma): 39 µM

COc1ccc(Cc2c3cc(OC)c(OC)cc3cc[n+]2C)cc1
TGI (LXFL 529 NSCLC): > 24.6 µM
TGI (RXF-631 renal): > 24 µM
TGI (XF 498 CNS): > 23.4 µM
TGI (SNB-78 CNS): > 100 µM
TGI (HOP-18 NSCLC): > 45.8 µM
TGI (DMS 114 small cell lung): > 28.8 µM
TGI (M19-MEL melanoma): > 55.3 µM

Cc1cc(Br)ccc1N=NC1C(=O)ON=C1c1ccccc1 (stereo not drawn)
TGI (LXFL 529 NSCLC): > 100 µM
TGI (RXF-631 renal): > 100 µM
TGI (SNB-78 CNS): > 100 µM
TGI (HOP-18 NSCLC): > 100 µM
TGI (DMS 114 small cell lung): > 100 µM
TGI (M19-MEL melanoma): > 100 µM
